Where a SMILES comes first, the peptide text is derived from it.
B1: eIFTerminator4-CBL binary complex (complex)
chain 1: MTVEEMDSWIKSWDQMGGSGGSGGSGKKRYSREFLLGF
chain 2: PPGTVDKKMVEKCWKLMDKVVRLCQNPKLALKNSPPYILDLLPDTYQHLRTILSRYEGKMETLGENEYFRVFMENLMKKTKQTISLFKEGKERMYEENSQPRRNLTKLSLIFSHMLAELKGIFPSGLFQGDTFRITKADAAEFWRKAFGEKTIVPWKSFRQALHEVHPISSGLEAMALKSTIDLTCNDYISVFEFDIFTRLFQPWSSLLRNWNSLAVTHPGYMAFLTYDEVKARLQKFIHKPGSYIFRLSCTRLGQWAIGYVTADGNILQTIPHNKPLFQALIDGFREGFYLFPDGRNQNPDLTGLCEPTPQDHIKVTQEQYELYCEMGSTFQLCKICAENDKDVKIEPCGHLMCTSCLTSWQESEGQGCPFCRCEIKGTEPIVVDPFD

What was measured:
eIF4E = target: T1, eIF4E (Homo sapiens, UniProt P06730); test: Western blot of endogenous eIF4E (and eIF4A, eIF4G, FITC) in HeLa cells; assay type: cell-based; conditions: 3 h, result in words; for eIF4E degradation, PROTAC versus individual warheads: 10 µM
T1 construct: assessed the effects on the endogenous levels of eIF4E; endogenous in cells; host or cells: HeLa
T1 sequence (P06730 whole entry): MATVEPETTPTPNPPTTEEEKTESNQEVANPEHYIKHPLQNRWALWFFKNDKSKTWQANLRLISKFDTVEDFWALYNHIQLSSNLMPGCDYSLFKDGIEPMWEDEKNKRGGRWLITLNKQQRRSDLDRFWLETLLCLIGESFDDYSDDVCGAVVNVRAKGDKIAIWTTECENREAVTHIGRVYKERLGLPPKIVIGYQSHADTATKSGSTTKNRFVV
Description: Western blot procedures for cell-based assays
Three washes with 1 mL PBS were performed before harvesting cells with a cell lifter. The cells were frozen in liquid nitrogen and stored at -70°C. The lysis buffer comprised 50 mM Tris-HCl (pH 7.5), 150 mM NaCl, 1% Triton-X, 1% SDS, 1 μL benzonase and one tablet of the Pierce TM Protease Inhibitor Tablets, EDTA-free (ThermoFisher Sceintific) in PBS except for HA-tag and Myc-tag IP. As for HA-tag and Myc-tag IP, the lysis buffer consisted of 50 mM Tris-HCl (pH 7.5), 150 mM NaCl, 1 mM EDTA, 1% IGEPAL CA-630, 10% glycerol, 20 μM PMSF, 1 mM DTT, and a single Protease Inhibitor Tablet in PBS.
The cells were lysed in 35 μL lysis buffer at 4°C by vortexing every 10 min over a period of 90 min. Protein concentration in the cell lysate was measured by Bradford assay.
Lysates were immunoprecipitated in addition to inputs when appropriate. SDS-PAGE and immunoblotting analysis were performed subsequently. […]
CellTiter-Glo2.0 Cell Viability Assay […]
A 13-point serial dilution series of 0.163 μM –
24.4 μM of each peptide dissolved in DMSO was dispensed with the highest concentration of DMSO at less than 0.5%. Three replicates were run per condition. The assay plate was incubated for 3 hr or 8 hr at 37°C, 5% CO 2. Following this, the liquid on the assay plate was removed using the Bluewasher. […]
Comparison of CP-eIFTerminator peptides and warheads in HeLa cells
HeLa cells were seeded in 6 cm dishes at a cell density of 1.5 x10^6 per dish. After overnight incubation at 37°C, 5% CO 2, cells were treated with […] along with 10 μM of respective cell-penetrating peptides. Peptides were reconstituted in water immediately before addition to the cell culture. An equal volume of water was added as a negative control.
Cells were harvested 3 hr after peptide incubation at 37°C, 5% CO 2 for western blot analysis.
Anti-actin, anti-eIF4EA, anti-eIF4E, anti-eIF4G, and anti-FITC antibodies, as well as […]
secondary IgG in Table 3 were used for Western blot.
Time course of CP-eIFTerminator4 in HeLa cells
0.5 x 10^6 HeLa cells were seeded in 35 mm dishes. A time course experiment was initiated after overnight incubation at 37°C, 5% CO 2. For each time point (0.5, 3, 6, 12, 24 hr), cells were treated with fresh medium containing 100 ng/mL EGF along with 20 μM CP-eIFTerminator4 or water. All dishes were harvested at the same time, after varying incubations with the peptide.
Titration of CP-eIFTerminator4 in HeLa and U-2 OS cells […]
Immediately after this, 2.5 μM, 10 μM, or 50 μM CP-eIFTerminator4 was added to U-2 OS cells. 5 μM, 10 μM, or 20 μM CP-eIFTerminator4 was added in the case of HeLa cells. […]
15022) or 50 μM chloroquine (Cell Signaling Technology, Cat. No.: 14774S) and incubated for 4 hr at 37 °C, 5% CO 2. […] The cell lysates were analysed by western blot. […]

HeLa cells = test: CellTiter-Glo2.0 cell viability assay; assay type: cell-based; conditions: for viable cells (lowest): concentrations of 16.10 µM or higher
Description: Supplementary Figure 5. Characterisation of cytotoxicity effects of CP-eIFTerminators and […]
A. Measurement of cell viability (%) in HeLa cells following 3-hr treatments with cell-penetrating peptides. A Cell Titer-Glo2.0 cell viability assay was performed to assess viability of HeLa cells following a 3-hr treatment with a dilution series of each CP-eIFTerminator or parental warhead (CP-CBLock or CP-eIF4G1-D5S). The concentration range of each peptide in the 13-point serial dilution was 0.16-24.4 μM.
Data on CP-eIFTerminator2 are not shown as it was insoluble (n = 3, mean ± Standard error of the mean (SEM)).
B. Measurement of cell viability (%) in HeLa cells following 8 hr treatments with cell- […]
viability of HeLa cells following an 8-hr treatment with a dilution series of each CP-eIFTerminator, CP-CBLock, or CP-eIF4G1-D5S. The concentration range of each peptide in the 13-point serial dilution was 0.16-24.4 μM. CP-eIFTerminator2 was not
(1 picture or pasted object on this page, not shown here)
MgCl2. After the liquid was removed, 30 μL 2x LDS mix (prepared as described above) was used to elute the IP samples. The samples were boiled at 92°C for 10 min and 28 μL were loaded on a 4-12% Bis-Tris SDS-PAGE gel, along with the whole cell lysates that were prepared in 75 μL RIPA buffer. The gel was subsequently transferred and western blotted.
Antibodies included anti-actin, anti-HA, anti-K48 antibodies as primaries, as well as IRDye800CW goat anti-mouse IgG secondary antibody and IRDye680LT goat anti-rabbit […]
CellTiter-Glo2.0 Cell Viability Assay
Cells were seeded onto a Greiner 384 small volume plate using a Multidrop TM Combi Reagent Dispenser (Thermo Scientific). The seeding density was 2000 cells/well in a volume of 15 μL per well. After incubating the 384-well plate overnight at 37°C, 5% CO 2, the medium on the plate was removed using a Bluewasher (Blue Cat Bio). […] The plate was read using a PHERAstar FSX (BMG Labtech). Raw data were exported from the Pherastar as a Microsoft Excel file and analysed in Excel, and the processed data were plotted in GraphPad Prism v9.5.1. […]

His-eIF4E = target: T2, His-eIF4E (UniProt P06730 1-217); test: SPR; His-eIF4E immobilised; dilution series of eIFTerminator with a fixed, saturating concentration of CBL (1 µM) as analyte; steady-state affinities, ternary complex; conditions: both partners purified
T2 construct: eukaryotic translation initiation factor 4E (eIF4E); Immobilised on the SPR chip; also called eukaryotic translation initiation factor 4E; source: recombinant
T2 sequence (P06730 whole entry): as above

Molecule | eIF4E degradation, PROTAC versus individual warheads (eIF4E) | effect on eIF4A1, eIF4E and eIF4G1 levels (eIF4E) | viable cells (lowest) (HeLa cells; 3 h post-peptide treatment) | viable cells (lowest) (HeLa cells; 8 h post-peptide treatment) | concentration at which cytotoxicity was exhibited (HeLa cells; CellTiter-Glo2.0, 0.16–24.4 µM, 3 h and 8 h, 100 ng/mL EGF, n = 3) | Kd (His-eIF4E)
CC[C@H](C)[C@H](NC(=O)[C@H](CCCCN)NC(=O)[C@@H](NC(=O)[C@H](CCC(N)=O)NC(=O)[C@@H](N)CCCNC(=N)N)[C@@H](C)CC)C(=O)N[C@@H](Cc1c[nH]c2ccccc12)C(=O)N[C@@H](Cc1ccccc1)C(=O)N[C@@H](CCC(N)=O)C(=O)N[C@@H](CC(N)=O)C(=O)N[C@@H](CCCNC(=N)N)C(=O)N[C@@H](CCCNC(=N)N)C(=O)N[C@@H](CCSC)C(=O)N[C@@H](CCCCN)C(=O)N[C@@H](Cc1c[nH]c2ccccc12)C(=O)N[C@@H](CCCCN)C(=O)N[C@@H](CCCCN)C(=O)NCC(=O)NCC(=O)N[C@@H](CO)C(=O)N[C@@H](CCCCN)C(=O)N[C@@H](CCCCN)C(=O)N[C@@H](CCCNC(=N)N)C(=O)N[C@@H](Cc1ccc(O)cc1)C(=O)N[C@@H](CO)C(=O)N[C@@H](CCCNC(=N)N)C(=O)N[C@@H](CCC(=O)O)C(=O)N[C@@H](Cc1ccccc1)C(=O)N[C@@H](CC(C)C)C(=O)N[C@@H](CC(C)C)C(=O)NCC(=O)N[C@@H](Cc1ccccc1)C(N)=O [CP-eIF4G1-D5S] (H-RQIKIWFQNRRMKWKKGGSKKRYSREFLLGF-NH2; N-terminus assumed) | do not trigger eIF4E degradation | minimal effects | ≥ 35% | ≥ 25% | ≥ 16.10 µM | –
N'-RQIKIWFQNRRMKWKKGGSMTVEEMDSWIKSWDQR-C' [CP-CBLock] | do not trigger eIF4E degradation | minimal effects | – | – | – | –
B1 | – | – | – | – | – | 43.8 nM
